Test results: the supplement of paper PMC3937590

Columns and labels:
Experiment in all cases: -log10 GI50 (growth inhibition 50%) (-log10(M)); higher = more potent growth inhibition
[1] = test system: HCC1395
In short: (§1)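 Dose-response data came from breast cancer cell lines exposed to each compound for 72 hours at nine doses in 1:5 serial dilution, in triplicate, and read by luminescence relative to a time-zero plate. A Gompertz curve fitted by nonlinear least squares gave GI50, the molar concentration for the set level of growth inhibition, reported as its negative logarithm to base 10. Where a value equals the top dose, it carries a < qualifier.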

[2] = test system: SUM225CWN
In short: as §1

[3] = test system: HCC38
In short: as §1

[4] = test system: ZR75B
In short: as §1

[5] = test system: AU565
In short: as §1

[6] = test system: MX1
In short: as §1

[7] = test system: MDAMB175VII
In short: as §1

[8] = test system: BT474
In short: as §1

[9] = test system: LY2
In short: as §1

[10] = test system: T47D
In short: as §1

[11] = test system: CAMA1
In short: as §1

[12] = test system: 600MPE
In short: as §1

[13] = test system: MDAMB415
In short: as §1

[14] = test system: HCC1954
In short: as §1

[15] = test system: SUM185PE
In short: as §1

[16] = test system: MDAMB134VI
In short: as §1

[17] = test system: ZR751
In short: as §1

[18] = test system: BT20
In short: as §1

[19] = test system: HCC70
In short: as §1

[20] = test system: MDAMB361
In short: as §1

[21] = test system: SUM159PT
In short: as §1

[22] = test system: SUM149PT
In short: as §1

[23] = test system: SKBR3
In short: as §1

[24] = test system: HCC1569
In short: as §1

[25] = test system: MDAMB453
In short: as §1

[26] = test system: MCF7
In short: as §1

[27] = test system: MCF10F
In short: as §1

[28] = test system: BT483
In short: as §1

[29] = test system: HCC1428
In short: as §1

[30] = test system: UACC812
In short: as §1

[31] = test system: MDAMB157
In short: as §1

[32] = test system: SUM52PE
In short: as §1

[33] = test system: HCC3153
In short: as §1

[34] = test system: MDAMB231
In short: as §1

[35] = test system: MCF10A
In short: as §1

[36] = test system: MCF12A
In short: as §1

[37] = test system: BT549
In short: as §1

[38] = test system: SUM229PE
In short: as §1

[39] = test system: HS578T
In short: as §1

[40] = test system: T47D_KBluc
In short: as §1

[41] = test system: HCC1806
In short: as §1

[42] = test system: HCC1143
In short: as §1

[43] = test system: SUM1315MO2
In short: as §1

[44] = test system: HCC2185
In short: as §1

[45] = test system: HCC1187
In short: as §1

[46] = test system: 184B5
In short: as §1

[47] = test system: 184A1
In short: as §1

[48] = test system: HCC1937
In short: as §1

[49] = test system: HCC1419
In short: as §1

SMILES: O=C(/C=C/C#Cc1cccc(NS(=O)(=O)c2ccccc2)c1)NO [Oxamflatin]
- -log10 GI50 [1]: 5.67
- -log10 GI50 [2]: 6.06
- -log10 GI50 [3]: 6.77
- -log10 GI50 [4]: 6.41
- -log10 GI50 [5]: 6.19
- -log10 GI50 [6]: 6.32
- -log10 GI50 [7]: 5.41
- -log10 GI50 [8]: 6.57
- -log10 GI50 [9]: 5.89
- -log10 GI50 [10]: 6.06
- -log10 GI50 [11]: 6.09
- -log10 GI50 [12]: 5.53
- -log10 GI50 [13]: 6.22
- -log10 GI50 [14]: 5.81
- -log10 GI50 [15]: 6.51
- -log10 GI50 [16]: 6.18
- -log10 GI50 [17]: 5.65
- -log10 GI50 [18]: 5.42
- -log10 GI50 [19]: 6.36
- -log10 GI50 [20]: 6.15
- -log10 GI50 [21]: 6.5
- -log10 GI50 [22]: 6.23
- -log10 GI50 [23]: 5.95
- -log10 GI50 [24]: 5.88
- -log10 GI50 [25]: 6.56
- -log10 GI50 [26]: 5.74
- -log10 GI50 [27]: 5.41
- -log10 GI50 [28]: 6.27
- -log10 GI50 [29]: 6.33
- -log10 GI50 [30]: 5.75
- -log10 GI50 [31]: 6.13
- -log10 GI50 [32]: 6.23
- -log10 GI50 [33]: 5.82
- -log10 GI50 [34]: 5.58
- -log10 GI50 [35]: 6.14
- -log10 GI50 [36]: 5.76
- -log10 GI50 [37]: 5.96
- -log10 GI50 [38]: 5.74
- -log10 GI50 [39]: 5.86
- -log10 GI50 [40]: 5.9
- -log10 GI50 [41]: 6.16
- -log10 GI50 [42]: 6.28
- -log10 GI50 [43]: 5.64
- -log10 GI50 [44]: 6.47
- -log10 GI50 [45]: 6.19
- -log10 GI50 [46]: 6.06
- -log10 GI50 [47]: 5.86
- -log10 GI50 [48]: 5.84
- -log10 GI50 [49]: 5.88

SMILES: CO[C@H]1C[C@@H]2CC[C@@H](C)[C@@](O)(O2)C(=O)C(=O)N2CCCC[C@H]2C(=O)O[C@H]([C@H](C)C[C@@H]2CC[C@@H](OC(=O)C(C)(CO)CO)[C@H](OC)C2)CC(=O)[C@H](C)/C=C(\C)[C@@H](O)[C@@H](OC)C(=O)[C@H](C)C[C@H](C)/C=C/C=C/C=C/1C [Temsirolimus]
- -log10 GI50 [1]: 4.83
- -log10 GI50 [2]: 5.6
- -log10 GI50 [3]: 4.91
- -log10 GI50 [4]: 6.97
- -log10 GI50 [6]: 5.45
- -log10 GI50 [7]: 4.66
- -log10 GI50 [8]: 7.57
- -log10 GI50 [9]: 6.85
- -log10 GI50 [10]: 5.85
- -log10 GI50 [12]: 4.74
- -log10 GI50 [13]: 8.36
- -log10 GI50 [14]: 6.66
- -log10 GI50 [15]: < 3.88
- -log10 GI50 [16]: 6.89
- -log10 GI50 [17]: < 3.88
- -log10 GI50 [18]: 6.18
- -log10 GI50 [19]: 6.49
- -log10 GI50 [20]: 6.56
- -log10 GI50 [22]: 5.21
- -log10 GI50 [23]: 7.27
- -log10 GI50 [24]: 5.49
- -log10 GI50 [26]: 5.8
- -log10 GI50 [27]: 6.11
- -log10 GI50 [28]: 6.57
- -log10 GI50 [29]: 5.25
- -log10 GI50 [30]: 6.21
- -log10 GI50 [31]: 4.63
- -log10 GI50 [32]: 8.82
- -log10 GI50 [33]: 4.63
- -log10 GI50 [35]: 6.38
- -log10 GI50 [36]: 5.03
- -log10 GI50 [37]: 6.61
- -log10 GI50 [38]: 4.87
- -log10 GI50 [39]: 4.66
- -log10 GI50 [40]: 4.56
- -log10 GI50 [41]: 4.69
- -log10 GI50 [42]: 5.8
- -log10 GI50 [43]: 6.06
- -log10 GI50 [44]: 8.19
- -log10 GI50 [45]: 6.1
- -log10 GI50 [46]: 5.29
- -log10 GI50 [47]: 6.3
- -log10 GI50 [48]: 6.36
- -log10 GI50 [49]: 7.27

SMILES: Cn1cnc2c(F)c(Nc3ccc(Br)cc3Cl)c(C(=O)NOCCO)cc21 [AZD6244]
- -log10 GI50 [1]: 4.42
- -log10 GI50 [2]: < 4.3
- -log10 GI50 [3]: < 4.3
- -log10 GI50 [4]: < 4.3
- -log10 GI50 [5]: < 4.3
- -log10 GI50 [6]: 6.34
- -log10 GI50 [7]: 5.59
- -log10 GI50 [8]: < 4.3
- -log10 GI50 [9]: < 4.3
- -log10 GI50 [10]: < 4.3
- -log10 GI50 [11]: < 4.3
- -log10 GI50 [12]: 6.24
- -log10 GI50 [13]: 4.96
- -log10 GI50 [14]: 5.84
- -log10 GI50 [15]: < 4.3
- -log10 GI50 [16]: 6.2
- -log10 GI50 [17]: 4.75
- -log10 GI50 [18]: < 4.3
- -log10 GI50 [19]: 5.75
- -log10 GI50 [20]: < 4.3
- -log10 GI50 [21]: 6.66
- -log10 GI50 [22]: 6.32
- -log10 GI50 [23]: < 4.3
- -log10 GI50 [24]: < 4.3
- -log10 GI50 [25]: < 4.3
- -log10 GI50 [26]: < 4.3
- -log10 GI50 [27]: 5.62
- -log10 GI50 [28]: < 4.3
- -log10 GI50 [29]: < 4.3
- -log10 GI50 [30]: < 4.3
- -log10 GI50 [31]: < 4.3
- -log10 GI50 [32]: 5.01
- -log10 GI50 [33]: < 4.3
- -log10 GI50 [34]: < 4.3
- -log10 GI50 [35]: 6.71
- -log10 GI50 [36]: 6.69
- -log10 GI50 [37]: < 4.3
- -log10 GI50 [38]: 7.13
- -log10 GI50 [39]: 4.75
- -log10 GI50 [40]: < 4.3
- -log10 GI50 [41]: < 4.3
- -log10 GI50 [42]: < 4.3
- -log10 GI50 [43]: 5.57
- -log10 GI50 [44]: < 4.3
- -log10 GI50 [45]: < 4.3
- -log10 GI50 [46]: 6.9
- -log10 GI50 [47]: 6.5
- -log10 GI50 [48]: < 4.3
- -log10 GI50 [49]: 4.75
